Measured values as given in ChEMBL document CHEMBL1201862, “PubChem BioAssay data set” (2004).
Activity calls are given as the source filed them.

How the values were obtained:
Vero [1] = test: cells; assay type: functional, cell-based; details: Chlorocebus sabaeus
Vero [2] = test: cells; assay type: functional; details: Chlorocebus sabaeus
HEK293 [3] = test: NOD1 signaling inhibitors, primary screen, cell-based, luminescence, uHTS (AID 1578); assay type: functional; details: Homo sapiens
HEK293 [4] = test: cells; assay type: functional, cell-based; details: Homo sapiens
HEK293 [5] = test: cells; assay type: functional, cell-based; details: Homo sapiens; remark: listed apart in the source
[6] = target: Nucleotide-binding oligomerization domain-containing protein 2 (Homo sapiens, UniProt Q9HC29); test: NOD2 signaling inhibitors, cell-based, luminescence, uHTS, HEK293 (AID 1566); assay type: functional
HEK293 [7] = test: NOD2 signaling inhibitors in MDP-stimulated cells, cell-based, uHTS, luminescence (AID 2001); assay type: functional; details: Homo sapiens
HEK293 [8] = test: cells; assay type: functional, cell-based; details: Homo sapiens; remark: listed apart in the source
H4 = test: Luminescence Cell-Based Dose Response HTS to Identify Activators of 5'UTR Stem-Loop Driven Prion Protein mRNA Translation in H4 Neuroglioblastoma Cells. [Related pubchem assays: 1829 (Project Summary), 1814 (Primary HTS)]; assay type: functional; details: Homo sapiens
Protein skinhead-1 = target: T1, Protein skinhead-1 (Caenorhabditis elegans, UniProt P34707); assay type: functional
T1 sequence (P34707 whole entry): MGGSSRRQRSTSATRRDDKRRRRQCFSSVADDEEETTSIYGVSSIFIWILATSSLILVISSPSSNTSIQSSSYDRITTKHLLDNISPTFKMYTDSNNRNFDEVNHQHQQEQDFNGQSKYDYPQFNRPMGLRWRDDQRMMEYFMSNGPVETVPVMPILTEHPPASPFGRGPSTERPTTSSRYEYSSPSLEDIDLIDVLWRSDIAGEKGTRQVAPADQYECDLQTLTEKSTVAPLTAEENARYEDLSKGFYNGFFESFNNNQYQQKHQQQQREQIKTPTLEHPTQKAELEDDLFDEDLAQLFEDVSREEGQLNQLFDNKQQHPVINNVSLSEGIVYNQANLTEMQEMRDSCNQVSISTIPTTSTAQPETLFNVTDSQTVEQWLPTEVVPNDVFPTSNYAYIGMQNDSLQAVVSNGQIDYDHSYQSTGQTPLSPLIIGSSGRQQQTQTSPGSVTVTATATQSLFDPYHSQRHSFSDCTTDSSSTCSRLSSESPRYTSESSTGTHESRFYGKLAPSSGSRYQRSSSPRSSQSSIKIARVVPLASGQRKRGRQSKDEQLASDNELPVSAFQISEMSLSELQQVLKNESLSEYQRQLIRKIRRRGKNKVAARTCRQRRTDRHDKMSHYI

Cytochrome P450 2C9 = Cytochrome P450 2C9 (Homo sapiens, UniProt P11712)
Chain of Cytochrome P450 2C9 (P11712 whole entry): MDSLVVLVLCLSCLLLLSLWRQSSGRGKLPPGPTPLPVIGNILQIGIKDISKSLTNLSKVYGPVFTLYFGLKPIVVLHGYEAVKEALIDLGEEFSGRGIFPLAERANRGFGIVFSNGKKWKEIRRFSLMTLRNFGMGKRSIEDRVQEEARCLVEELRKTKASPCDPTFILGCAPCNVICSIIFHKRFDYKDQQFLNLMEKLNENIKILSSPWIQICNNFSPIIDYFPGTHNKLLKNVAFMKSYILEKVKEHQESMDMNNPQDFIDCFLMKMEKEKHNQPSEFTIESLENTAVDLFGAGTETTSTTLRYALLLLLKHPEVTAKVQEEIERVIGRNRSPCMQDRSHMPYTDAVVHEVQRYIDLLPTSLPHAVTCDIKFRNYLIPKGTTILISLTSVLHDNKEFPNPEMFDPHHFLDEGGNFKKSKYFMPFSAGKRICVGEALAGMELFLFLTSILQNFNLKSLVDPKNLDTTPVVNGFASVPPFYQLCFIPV

Cytochrome P450 3A4 = Cytochrome P450 3A4 (Homo sapiens, UniProt P08684);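 further: CYP3A4 tested as one member of a cytochrome P450 panel screen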
Chain of Cytochrome P450 3A4 (P08684 whole entry): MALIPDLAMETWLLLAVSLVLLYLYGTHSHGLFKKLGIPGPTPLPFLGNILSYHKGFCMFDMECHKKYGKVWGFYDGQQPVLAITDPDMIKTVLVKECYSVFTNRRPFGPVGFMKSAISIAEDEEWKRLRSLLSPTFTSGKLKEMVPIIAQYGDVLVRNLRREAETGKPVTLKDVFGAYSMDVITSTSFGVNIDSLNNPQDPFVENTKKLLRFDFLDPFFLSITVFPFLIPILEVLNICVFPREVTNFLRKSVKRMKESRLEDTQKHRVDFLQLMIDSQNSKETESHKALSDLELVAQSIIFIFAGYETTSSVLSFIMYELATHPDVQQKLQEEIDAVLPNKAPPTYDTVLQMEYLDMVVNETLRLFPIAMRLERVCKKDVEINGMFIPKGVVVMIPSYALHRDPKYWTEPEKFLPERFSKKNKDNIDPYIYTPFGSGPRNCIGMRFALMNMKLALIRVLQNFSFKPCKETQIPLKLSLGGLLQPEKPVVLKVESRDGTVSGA

[9] = inhibitors of firefly luciferase expression or activity, dose response, H4 neuroglioma cells, luminescence (AID 1990); assay type: functional, cell-based
[10] = Luminescence Cell-Based Dose Response HTS to Identify Inhibitors of 5'UTR Stem-Loop Driven Prion Protein mRNA Translation in H4 Neuroglioblastoma Cells. [Related pubchem assays: 1827 (Project Summary), 1813 (Primary HTS)]; assay type: functional
[11] = inhibitors of SNCA 5'UTR-driven reporter translation, confirmation, H4 neuroglioma cells, luminescence (AID 1988); assay type: functional, cell-based
[12] = cytotoxicity in HEK-293T cells, dose response, cytotoxicity control for TCR NF-kB inhibitor project, luminescence, T-cell screen hits (AID 489026); assay type: functional, cell-based;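 further: cells exposed to compound about 14 hours before the viability readout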
INS1 = test: beta cell apoptosis inhibitors, cytokine rescue, dose response, luminescence, retest (AID 449756); assay type: functional, cell-based; details: Rattus norvegicus;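 further: cell death triggered by IL-1 beta plus TNF-alpha plus IFN-gamma mixture; protective hits raise ATP signal compared with cytokine alone wells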
[13] = target: T2, Voltage-gated N-type calcium channel alpha-1B subunit/Amyloid beta A4 precursor protein-binding family A member 1 (Homo sapiens, UniProt Q00975+Q02410); assay type: protein assay
T2 sequence (Q00975 whole entry): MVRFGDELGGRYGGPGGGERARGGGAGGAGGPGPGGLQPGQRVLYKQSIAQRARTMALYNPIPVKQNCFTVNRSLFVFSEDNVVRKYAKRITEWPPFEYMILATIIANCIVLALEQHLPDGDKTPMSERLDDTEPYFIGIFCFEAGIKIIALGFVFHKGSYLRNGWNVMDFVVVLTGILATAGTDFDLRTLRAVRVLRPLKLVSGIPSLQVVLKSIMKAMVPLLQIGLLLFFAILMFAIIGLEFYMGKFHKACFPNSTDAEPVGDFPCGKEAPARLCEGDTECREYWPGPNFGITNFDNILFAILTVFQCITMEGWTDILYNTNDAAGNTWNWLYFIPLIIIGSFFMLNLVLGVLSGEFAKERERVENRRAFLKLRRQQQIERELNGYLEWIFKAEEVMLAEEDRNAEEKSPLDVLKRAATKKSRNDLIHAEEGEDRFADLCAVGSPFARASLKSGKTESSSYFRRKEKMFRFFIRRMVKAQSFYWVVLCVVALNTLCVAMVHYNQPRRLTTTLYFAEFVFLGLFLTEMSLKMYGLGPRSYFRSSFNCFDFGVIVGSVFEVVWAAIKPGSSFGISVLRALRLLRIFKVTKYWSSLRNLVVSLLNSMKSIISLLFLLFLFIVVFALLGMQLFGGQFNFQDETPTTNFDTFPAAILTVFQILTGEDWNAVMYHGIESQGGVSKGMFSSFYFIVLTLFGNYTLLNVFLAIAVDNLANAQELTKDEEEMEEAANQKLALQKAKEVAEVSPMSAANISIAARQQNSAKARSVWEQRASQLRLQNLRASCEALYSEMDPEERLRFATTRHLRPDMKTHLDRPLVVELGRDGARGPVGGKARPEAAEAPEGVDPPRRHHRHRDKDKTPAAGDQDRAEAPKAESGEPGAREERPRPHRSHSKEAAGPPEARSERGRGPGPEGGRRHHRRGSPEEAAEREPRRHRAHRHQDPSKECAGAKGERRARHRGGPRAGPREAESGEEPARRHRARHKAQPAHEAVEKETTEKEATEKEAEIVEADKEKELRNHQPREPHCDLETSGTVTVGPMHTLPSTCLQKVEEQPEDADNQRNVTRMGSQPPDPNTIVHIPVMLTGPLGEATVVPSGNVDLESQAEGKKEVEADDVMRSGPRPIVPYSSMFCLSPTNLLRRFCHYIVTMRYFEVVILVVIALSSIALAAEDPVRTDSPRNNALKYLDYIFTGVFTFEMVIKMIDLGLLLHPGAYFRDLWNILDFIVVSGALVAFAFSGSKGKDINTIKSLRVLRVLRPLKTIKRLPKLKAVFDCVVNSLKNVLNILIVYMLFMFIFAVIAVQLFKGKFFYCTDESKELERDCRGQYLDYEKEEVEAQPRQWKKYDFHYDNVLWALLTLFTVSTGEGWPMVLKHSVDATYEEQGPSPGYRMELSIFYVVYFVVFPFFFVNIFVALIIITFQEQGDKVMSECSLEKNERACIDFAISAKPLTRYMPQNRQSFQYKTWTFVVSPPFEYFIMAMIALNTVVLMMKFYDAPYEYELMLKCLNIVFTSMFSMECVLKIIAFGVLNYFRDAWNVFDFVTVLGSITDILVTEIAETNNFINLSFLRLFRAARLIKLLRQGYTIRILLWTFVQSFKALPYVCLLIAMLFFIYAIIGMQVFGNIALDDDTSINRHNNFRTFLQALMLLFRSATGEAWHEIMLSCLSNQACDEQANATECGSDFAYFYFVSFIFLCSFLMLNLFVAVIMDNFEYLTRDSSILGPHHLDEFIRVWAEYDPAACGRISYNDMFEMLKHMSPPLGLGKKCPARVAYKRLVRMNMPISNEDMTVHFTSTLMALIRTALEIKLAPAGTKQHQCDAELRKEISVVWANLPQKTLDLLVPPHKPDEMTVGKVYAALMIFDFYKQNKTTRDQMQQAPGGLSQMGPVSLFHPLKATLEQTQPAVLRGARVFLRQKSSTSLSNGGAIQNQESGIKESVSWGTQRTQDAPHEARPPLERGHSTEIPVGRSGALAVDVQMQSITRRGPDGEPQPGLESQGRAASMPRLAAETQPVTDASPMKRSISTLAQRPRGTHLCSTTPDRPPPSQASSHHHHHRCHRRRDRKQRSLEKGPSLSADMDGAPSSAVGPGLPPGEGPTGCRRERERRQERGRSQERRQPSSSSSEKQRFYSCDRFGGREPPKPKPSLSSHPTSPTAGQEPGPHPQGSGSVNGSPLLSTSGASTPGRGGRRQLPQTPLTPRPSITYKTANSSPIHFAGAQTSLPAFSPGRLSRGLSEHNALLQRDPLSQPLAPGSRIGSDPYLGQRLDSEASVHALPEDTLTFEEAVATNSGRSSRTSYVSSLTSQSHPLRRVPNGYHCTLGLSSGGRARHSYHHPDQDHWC
T2 sequence (Q02410 whole entry): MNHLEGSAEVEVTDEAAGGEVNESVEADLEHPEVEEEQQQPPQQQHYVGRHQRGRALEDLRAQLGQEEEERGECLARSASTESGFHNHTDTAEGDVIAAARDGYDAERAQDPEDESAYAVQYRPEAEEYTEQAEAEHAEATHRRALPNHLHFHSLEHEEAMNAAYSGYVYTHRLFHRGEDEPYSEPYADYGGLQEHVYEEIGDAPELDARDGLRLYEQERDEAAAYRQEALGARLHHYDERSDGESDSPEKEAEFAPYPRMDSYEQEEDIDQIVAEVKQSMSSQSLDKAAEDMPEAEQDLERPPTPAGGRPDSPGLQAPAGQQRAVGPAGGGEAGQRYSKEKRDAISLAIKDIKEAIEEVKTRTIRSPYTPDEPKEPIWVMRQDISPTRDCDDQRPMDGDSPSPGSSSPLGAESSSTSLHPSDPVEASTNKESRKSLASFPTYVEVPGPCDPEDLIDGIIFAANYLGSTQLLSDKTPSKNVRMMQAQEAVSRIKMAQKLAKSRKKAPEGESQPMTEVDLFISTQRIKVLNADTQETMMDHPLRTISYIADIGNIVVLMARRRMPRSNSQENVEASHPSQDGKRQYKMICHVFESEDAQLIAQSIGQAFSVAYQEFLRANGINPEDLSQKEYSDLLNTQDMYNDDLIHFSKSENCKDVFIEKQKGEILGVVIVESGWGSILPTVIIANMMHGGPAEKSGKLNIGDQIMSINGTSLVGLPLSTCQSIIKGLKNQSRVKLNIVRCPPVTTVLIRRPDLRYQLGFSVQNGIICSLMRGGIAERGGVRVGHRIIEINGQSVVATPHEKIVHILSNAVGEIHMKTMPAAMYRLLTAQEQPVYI

[14] = target: T2, Voltage-gated N-type calcium channel alpha-1B subunit/Amyloid beta A4 precursor protein-binding family A member 1; assay type: protein assay; remark: listed apart in the source
[15] = target: T3, Heat shock factor protein 1 (Mus musculus, UniProt P38532); test: HSF1 potentiators in luciferase reporter cells, confirmation, cell-based, NIH3T3, luminescence, dose retest (AID 435004); assay type: functional;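 further: stress induced by proteasome inhibitor MG132 added 30 min after compound; luciferase reporter driven by HSF1 response element in NIH3T3 cells; actives raise luminescence as potentiators of the MG132 stress response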
T3 sequence (P38532 whole entry): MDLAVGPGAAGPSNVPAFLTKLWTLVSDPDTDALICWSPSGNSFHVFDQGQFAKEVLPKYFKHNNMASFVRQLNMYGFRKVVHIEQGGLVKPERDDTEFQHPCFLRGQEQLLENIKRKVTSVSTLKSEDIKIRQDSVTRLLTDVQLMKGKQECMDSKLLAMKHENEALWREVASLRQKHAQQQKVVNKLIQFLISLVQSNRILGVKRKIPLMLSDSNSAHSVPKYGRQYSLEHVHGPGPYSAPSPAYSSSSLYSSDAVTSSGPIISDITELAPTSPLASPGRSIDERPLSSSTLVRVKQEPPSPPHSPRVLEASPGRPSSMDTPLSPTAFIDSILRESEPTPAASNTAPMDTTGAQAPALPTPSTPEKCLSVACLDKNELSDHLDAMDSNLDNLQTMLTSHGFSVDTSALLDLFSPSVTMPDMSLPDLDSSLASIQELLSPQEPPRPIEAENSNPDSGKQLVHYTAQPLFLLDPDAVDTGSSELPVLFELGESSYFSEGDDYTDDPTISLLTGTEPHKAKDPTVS

Paired box protein Pax-8 = Paired box protein Pax-8 (Homo sapiens, UniProt Q06710); test: inhibitors of PAX8-driven TPO luciferase reporter, dose response, RMG-I cells, cherry-pick (AID 687027); assay type: functional, cell-based;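 further: luciferase reporter driven by Pax8 target thyroperoxidase promoter measured by SteadyGlo luminescence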
Chain of Paired box protein Pax-8 (Q06710 whole entry): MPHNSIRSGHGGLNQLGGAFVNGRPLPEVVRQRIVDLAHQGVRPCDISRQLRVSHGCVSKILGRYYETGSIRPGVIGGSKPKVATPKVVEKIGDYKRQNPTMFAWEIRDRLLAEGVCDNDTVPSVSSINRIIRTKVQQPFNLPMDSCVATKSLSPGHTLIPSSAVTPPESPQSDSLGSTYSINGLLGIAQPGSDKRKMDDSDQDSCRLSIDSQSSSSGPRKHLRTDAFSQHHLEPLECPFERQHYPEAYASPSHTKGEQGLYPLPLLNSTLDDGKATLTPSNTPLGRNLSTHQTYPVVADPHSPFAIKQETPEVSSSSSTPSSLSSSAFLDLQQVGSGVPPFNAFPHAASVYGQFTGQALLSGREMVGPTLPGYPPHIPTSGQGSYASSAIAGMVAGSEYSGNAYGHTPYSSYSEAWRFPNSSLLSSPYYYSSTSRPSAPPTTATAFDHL

[16] = non-specific cell cytotoxicity, dose response, cytotoxicity control for PAX8 inhibitor project, plate reader, dry powder samples (AID 743021); assay type: functional, cell-based
Genome polyprotein = Genome polyprotein (dengue virus type 2, UniProt P29990); test: Dengue-2 NS5 methyltransferase inhibitors, primary screen, biochemical, confirmation dose response (AID 588689); assay type: functional
[17] = target: T4, Rac GTPase-activating protein 1 (Homo sapiens, UniProt Q9H0H5); test: MgcRacGAP GTPase-activating activity inhibitors, confirmation, biochemical, ADP Hunter fluorescence, primary and confirmatory (AID 624330); assay type: functional
T4 sequence (Q9H0H5 whole entry): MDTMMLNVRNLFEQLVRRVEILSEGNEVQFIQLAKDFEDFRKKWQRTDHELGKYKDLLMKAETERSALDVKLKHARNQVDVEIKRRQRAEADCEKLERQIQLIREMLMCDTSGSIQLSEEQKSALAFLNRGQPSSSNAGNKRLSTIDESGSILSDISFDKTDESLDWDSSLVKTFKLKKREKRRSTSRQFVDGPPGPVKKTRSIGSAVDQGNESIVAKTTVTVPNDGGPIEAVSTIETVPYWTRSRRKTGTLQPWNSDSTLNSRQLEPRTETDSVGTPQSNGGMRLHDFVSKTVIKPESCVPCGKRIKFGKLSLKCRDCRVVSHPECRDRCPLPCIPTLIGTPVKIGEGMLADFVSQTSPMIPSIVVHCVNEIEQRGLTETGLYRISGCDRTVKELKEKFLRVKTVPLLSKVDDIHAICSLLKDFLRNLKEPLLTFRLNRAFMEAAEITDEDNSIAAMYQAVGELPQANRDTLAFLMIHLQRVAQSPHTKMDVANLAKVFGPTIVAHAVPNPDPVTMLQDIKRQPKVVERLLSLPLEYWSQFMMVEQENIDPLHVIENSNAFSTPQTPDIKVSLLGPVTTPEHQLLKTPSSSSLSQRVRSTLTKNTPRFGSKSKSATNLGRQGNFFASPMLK

Structure (SMILES): Cc1ccc(/C=C/C(=O)c2c(C)nc3ccccn23)cc1
- IC50 (Vero [1]): > 25 µM (active)
- CC50 (Vero [2]): 17.6 µM (active)

Structure (SMILES): COc1ccc(C)cc1NC(=O)c1sc2ncnc(N3CCN(c4ccccn4)CC3)c2c1C
- EC50 (HEK293 [3]): > 20 µM (inactive)
- IC50 (HEK293 [4]): > 20 µM (inactive)
- IC50 (HEK293 [5]): > 20 µM (inactive)
- EC50 [6]: > 20 µM (inactive)
- IC50 (HEK293 [7]): > 20 µM (inactive)
- IC50 (HEK293 [8]): > 20 µM (inactive)

Structure (SMILES): Cc1ccccc1C(=O)Nc1ccc2c(c1)CCCN2C(=O)c1cccs1
- IC50 (Vero [1]): 7.77 µM (active)
- CC50 (Vero [2]): > 25 µM (active)

Structure (SMILES): O=[N+]([O-])c1ccc2nc(-c3ccc(Cl)cc3)n(OCc3ccccc3)c2c1
- EC50 (H4): 973 nM (active)
- IC50 (Protein skinhead-1): > 100 µM (inactive)
- AC50 (Cytochrome P450 2C9): 22.4 µM (inconclusive)
- AC50 (Cytochrome P450 3A4): inconclusive

Structure (SMILES): Cc1ccc2nc(C)c(CN3CCN(c4ccc([N+](=O)[O-])cc4Cl)CC3)n2c1
- EC50 [9]: > 120 µM (not active)
- EC50 [10]: 17.1 µM (active)
- EC50 [11]: > 120 µM (not active)
- IC50 [12]: > 80 µM (inactive)
- AC50 (INS1): 1.79 µM (active)

Structure (SMILES): COC(=O)N1CCC2(CC1)CCN(c1cccc(-c3ccccc3)c1)CC2
- AC50 (Cytochrome P450 3A4): inconclusive

Structure (SMILES): COc1ccc(N2C(=O)CC(Sc3nnnn3-c3ccc(F)cc3)C2=O)cc1 (centres undefined)
- IC50 [13]: 11 µM (active)
- IC50 [14]: 3.95 µM (active)
- EC50 [15]: 17.1 µM (active)
- AC50 (Paired box protein Pax-8): 13.6 µM (active)
- AC50 [16]: 26.6 µM (active)

Structure (SMILES): NNc1cc([N+](=O)[O-])cc2c1c(=O)n(Cc1ccccc1)[s+]2[O-] (centres undefined)
- IC50 [13]: 10.3 µM (active)
- IC50 [14]: > 50 µM (inactive)
- IC50 (Genome polyprotein): 63.4 µM (active)
- IC50 [17]: 52.3 µM (active)
